pEC50: −log10 of the molar value. Where two headings read alike, the source gives them in different places.
System: Bmi-1 protein
Test: Sandwich ELISA Assay (Bmi-1 protein level in HT-1080 cells after compound treatment)
Assay type: cell-based
How it was run: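 Sandwich ELISA quantified Bmi-1 protein against recombinant standard (125–8000 pg/mL), with lysates captured overnight at 4 °C and signal by HRP/TMB at 450 nm (570 nm reference). Lysates came from HT-1080 cells incubated 40–48 h with test compounds in 0.5% DMSO.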

[1] = Table 1, Bmi-1 sandwich ELISA, read-out: ELISA EC50 value for Bmi-1 protein
[2] = read-out: ELISA EC50 value for Bmi-1 protein, Table 1, Bmi-1 sandwich ELISA

Row | SMILES | pEC50 [1] | pEC50 [2]
1 | Cc1nn2ccccc2c1-c1cc(C#N)cc(Nc2ccc(OC(F)F)cc2)n1 [compound 512, 2-{[4-(difluoromethoxy)phenyl]amino}-6-(2-methylpyrazolo[1,5-a]pyridin-3-yl)pyridine-4-carbonitrile] | 7.00 to 8.00 | 
2 | Cc1c(-c2cncc(Nc3ccc(C(F)(F)F)cc3)n2)c(C(F)(F)F)nn1C [compound 276, 6-[1,5-dimethyl-3-(trifluoromethyl)-1H-pyrazol-4-yl]-N-[4-(trifluoromethyl)phenyl]pyrazin-2-amine] | 7.00 to 8.00 | 
3 | FC(F)(F)c1ccc(Nc2cncc(-c3ccnc4cc(Cl)ccc34)n2)cc1 [compound 385, 6-(7-chloroquinolin-4-yl)-N-[4-(trifluoromethyl)phenyl]pyrazin-2-amine] | 5.52 to 7.00 | 
4 | Cc1ccc(Nc2cc(C#N)cc(-n3c(C)nc4ccc(F)cc43)n2)cc1 [compound 611, 2-(6-fluoro-2-methyl-1H-benzimidazol-1-yl)-6-[(4-methylphenyl)amino]pyridine-4-carbonitrile] | 8.00 to 9.00 | 
5 | Cc1nc2cc(F)c(F)cc2n1-c1cncc(Nc2ccc(Cl)cc2)n1 [compound 575, N-(4-chlorophenyl)-6-(5,6-difluoro-2-methyl-1H-benzimidazol-1-yl)pyrazin-2-amine] | 7.00 to 8.00 | 
6 | Cc1nc2cc(F)c(F)cc2n1-c1c[n+]([O-])cc(Nc2ccc(C(F)(F)F)cc2)n1 [compound 495, 6-(5,6-difluoro-2-methyl-1H-benzimidazol-1-yl)-N-[4-(trifluoromethyl)phenyl]pyrazin-2-amine 4-oxide] | 7.00 to 8.00 | 
7 | FC(F)(F)c1ccc(Nc2cccc(-c3c(C(F)(F)F)nc4cnccn34)n2)cc1 [compound 194, 6-[2-(trifluoromethyl)imidazo[1,2-a]pyrazin-3-yl]-N-[4-(trifluoromethyl)phenyl]pyridin-2-amine] | 7.00 to 8.00 | 
8 | CCc1nc2ncc(Cl)cc2n1-c1cc(C#N)cc(Nc2ccc(OC(F)F)cc2)n1 [compound 452, 2-(6-chloro-2-ethyl-1H-imidazo[4,5-b]pyridin-1-yl)-6-{[4-(difluoromethoxy)phenyl]amino}pyridine-4-carbonitrile] | 7.00 to 8.00 | 
9 | FC(F)(F)c1ccc(Nc2cncc(-c3c(C(F)(F)F)nc4ncccn34)n2)cc1 [Cpd 67, 6-[2-(trifluoromethyl)imidazo[1,2-a]pyrimidin-3-yl]-N-[4-(trifluoromethyl)phenyl]pyrazin-2-amine] |  | 7.00 to 8.00
10 | NC(=O)c1cc(Nc2ccc(C(F)(F)F)cc2)nc(-c2c(C(F)(F)F)nc3ccccn23)c1 [Cpd 189, 2-[2-(trifluoromethyl)imidazo[1,2-a]pyridin-3-yl]-6-{[4-(trifluoromethyl)phenyl]amino}pyridine-4-carboxamide] |  | 7.00 to 8.00
11 | Cc1nc2ccccc2n1-c1cncc(Nc2ccc(OC(C)C)cc2)n1 [compound 660, 6-(2-methyl-1H-benzimidazol-1-yl)-N-[4-(propan-2-yloxy)phenyl]pyrazin-2-amine] | 7.00 to 8.00 | 
12 | Cc1nc2ccccc2n1-c1cncc(Nc2nc3ccc(C(F)(F)F)cc3s2)n1 [compound 440, N-[6-(2-methyl-1H-benzimidazol-1-yl)pyrazin-2-yl]-6-(trifluoromethyl)-1,3-benzothiazol-2-amine] | 5.52 to 7.00 | 
13 | OCc1nc2ccccn2c1-c1cncc(Nc2ccc(OC(F)(F)F)cc2)n1 [compound 213, [3-(6-{[4-(trifluoromethoxy)phenyl]amino}pyrazin-2-yl)imidazo[1,2-a]pyridin-2-yl]methanol] | 5.52 to 7.00 | 
14 | Cc1nc2ccccc2n1-c1cc(N)c(F)c(Nc2ccc(C(F)(F)F)cc2)n1 [compound 515, 3-fluoro-6-(2-methyl-1H-benzimidazol-1-yl)-N^2-[4-(trifluoromethyl)phenyl]pyridine-2,4-diamine] | 7.00 to 8.00 | 
15 | Cc1ccc(Nc2cncc(-n3c(C)nc4ccccc43)n2)c(O)c1 [compound 582, 5-methyl-2-{[6-(2-methyl-1H-benzimidazol-1-yl)pyrazin-2-yl]amino}phenol] | 8.00 to 9.00 | 

— patent US10584115B2, “Substituted pyridine and pyrazine BMI-1 inhibitors” (PTC Therapeutics, Inc., priority 2013, dated 2020)
